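Values below derive from 48-hour exposures of cells grown in 96-well plates, with endpoints linearly interpolated between the two concentrations bracketing the appropriate inhibition level. GI50 marks 50% less growth.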 The source made the active and inactive calls. Cut-off read from the data, not from the text of the source: active = GI50 up to about 1.1 µM and inactive = higher.
Columns and labels:
Experiment in all cases: growth of human tumour cells (NCI), 48 h
[1] = test system: DU-145
[2] = test system: HCC 2998
[3] = test system: CAKI-1
[4] = test system: UACC-257
[5] = test system: 786-0
[6] = test system: NCI-H460
[7] = test system: KM-20L2
[8] = test system: COLO 205
[9] = test system: HOP-62
[10] = test system: PC-3
[11] = test system: SK-MEL-28
[12] = test system: HCT-116
[13] = test system: MDA-MB-231
[14] = test system: SF-295
[15] = test system: RPMI-8226
[16] = test system: OVCAR-3
[17] = test system: SK-MEL-5
[18] = test system: HOP-92
[19] = test system: SK-MEL-2

SMILES	GI50 [1]	GI50 [2]	GI50 [3]	GI50 [4]	GI50 [5]	GI50 [6]	GI50 [7]	GI50 [8]	GI50 [9]	GI50 [10]	GI50 [11]	GI50 [12]	GI50 [13]	GI50 [14]	GI50 [15]	GI50 [16]	GI50 [17]	GI50 [18]	GI50 [19]
Cc1ccc(NC(=O)NC(=O)c2ccc([N+](=O)[O-])cc2[N+](=O)[O-])cc1Oc1ncc(Cl)cn1	0.731 µM (active)	0.271 µM (active)	0.479 µM (active)	0.689 µM (active)	0.466 µM (active)	0.338 µM (active)	0.234 µM (active)	0.415 µM (active)	0.277 µM (active)	0.117 µM (active)	2.9 µM (inactive)	0.333 µM (active)	0.614 µM (active)	0.406 µM (active)	0.292 µM (active)	0.355 µM (active)	0.195 µM (active)	–	–
O=C(O)c1cc(S(=O)(=O)N/N=C\c2c3ccccc3[n+]([O-])c3ccccc23)ccc1O	–	6.97 µM (inactive)	45.8 µM (inactive)	26.1 µM (inactive)	11.7 µM (inactive)	5.96 µM (inactive)	13.3 µM (inactive)	15.1 µM (inactive)	7.48 µM (inactive)	–	12.3 µM (inactive)	7.55 µM (inactive)	–	4.45 µM (inactive)	7.48 µM (inactive)	40.1 µM (inactive)	11.7 µM (inactive)	9.64 µM (inactive)	16.9 µM (inactive)
CN(C)/N=N/c1c[nH]nc1C(N)=O	–	> 100 µM (inactive)	> 100 µM (inactive)	> 100 µM (inactive)	> 100 µM (inactive)	> 100 µM (inactive)	> 100 µM (inactive)	> 100 µM (inactive)	> 100 µM (inactive)	–	> 100 µM (inactive)	> 100 µM (inactive)	–	> 100 µM (inactive)	> 100 µM (inactive)	> 100 µM (inactive)	> 100 µM (inactive)	> 100 µM (inactive)	> 100 µM (inactive)

— ChEMBL document CHEMBL1201862, “PubChem BioAssay data set” (2004)
